In US10046003B2, “Composition for treating neuropathy, a process and a method of treatment thereof” (INDUS BIOTECH PRIVATE LIMITED, priority 2013, dated 2018):

Tested on: PSNL rats
Experiment: Motor nerve conduction velocity, comparison of Test composition vs alcoholic extract of fenugreek vs Pinitol stand-alone in PSNL rat model
Assay type: in vivo
Procedure: To compare efficacy of test Composition with Alcoholic Extract of Fenugreek (30 mg/kg p.o) and Pinitol stand-alone (30 mg/kg) in neuropathy, PSNL rat model is used. The sciatic nerve of the rats is exposed and they received injury by a process where a 4-0 silk suture are inserted into the nerve with ⅜ curve, with a reverse-cutting mini needle and is tightly ligated so that the dorsal ⅓-½ of the nerve thickness are trapped in the ligature. They received only vehicle (Distilled water). Male wistar rats weighing 200-220 g average are used for the study. 500 g of fenugreek seeds is extracted by using alcoholic extraction procedure. This extract is obtained in a dry form by using vacuum evaporation technique. […] When compared with sham operated rats there is significant decrease in nerve conduction velocity in PSNL control rats. […] The data was analysed by one way ANOVA followed by Bonferroni's Multiple Comparison Test, wherein: […]

In the case of `CO[C@H]1[C@H](O)[C@@H](O)[C@@H](O)[C@H](O)[C@@H]1O` [Pinitol stand-alone, 3-O-methyl-1,2,4 cis-3,5,6 transhexahydroxycyclohexanol], the “nerve conduction velocity when compared with PSNL control rats” value (30 mg/kg p.o., day 28) is reported as “marginal effect” and the “Motor Nerve Conduction Velocity (m/s)” value (PSNL rats, 30 mg/kg p.o. chronic administration, Day 28 (after treatment)) is reported as 13.97 m/s.
